According to the supplement of paper PMC11061612:

Columns and labels:
MK-2206 = compound: NC1(c2ccc(-c3nc4ccn5c(=O)[nH]nc5c4cc3-c3ccccc3)cc2)CCC1 [MK-2206]; conditions: max 10 µM
Method in brief: (§1)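 Viability was measured with CellTiter-Glo 2.0 luminescence after 72 hours of dosing at a final DMSO of typically 0.2%, and scaled between blank-well and DMSO-well means. Beforehand, cancer cell lines sat 24 hours at 37°C and 5% CO2 in 1536-well plates in 7.5 μl DMEM/F12 or RPMI with 10% FBS. A non-linear mixed effects model fitted two-parameter logistic curves to the dose responses. The single-agent IC50 comes from these fits.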

AZD2811 = compound: CCN(CCO)CCCOc1ccc2c(Nc3cc(CC(=O)Nc4cccc(F)c4)[nH]n3)ncnc2c1 [AZD2811]; conditions: max 1 µM
Method in brief: as §1

AZD5991 = compound: Cc1c2c(nn1C)CSCc1cc(n(C)n1)CSc1cc(c3ccccc3c1)OCCCc1c(C(=O)O)n(C)c3c-2c(Cl)ccc13 [AZD5991]; conditions: max 1 µM
Method in brief: as §1

Gefitinib = compound: COc1cc2ncnc(Nc3ccc(F)c(Cl)c3)c2cc1OCCCN1CCOCC1 [Gefitinib]; conditions: max 10 µM
Method in brief: as §1

AZD5153 = compound: COc1nnc2ccc(N3CCC(c4ccc(OCCN5CCN(C)C(=O)[C@H]5C)cc4)CC3)nn12 [AZD5153]; conditions: max 1 µM
Method in brief: as §1

SN-38 = compound: CCc1c2c(nc3ccc(O)cc13)-c1cc3c(c(=O)n1C2)COC(=O)[C@]3(O)CC [SN-38]; conditions: max 0.3 µM
Method in brief: as §1

Lapatinib = compound: CS(=O)(=O)CCNCc1ccc(-c2ccc3ncnc(Nc4ccc(OCc5cccc(F)c5)c(Cl)c4)c3c2)o1 [Lapatinib]; conditions: max 10 µM
Method in brief: as §1

Prexasertib = compound: COc1cccc(OCCCN)c1-c1cc(Nc2cnc(C#N)cn2)n[nH]1 [Prexasertib]; conditions: max 1 µM
Method in brief: as §1

Doxorubicin = compound: COc1cccc2c1C(=O)c1c(O)c3c(c(O)c1C2=O)C[C@@](O)(C(=O)CO)C[C@@H]3O[C@H]1C[C@H](N)[C@H](O)[C@H](C)O1 [Doxorubicin]; conditions: max 1 µM
Method in brief: as §1

AZD7648 = compound: Cc1cc2ncnn2cc1Nc1ncc2c(n1)n(C1CCOCC1)c(=O)n2C [AZD7648]; conditions: max 10 µM
Method in brief: as §1

Venetoclax = compound: CC1(C)CCC(CN2CCN(c3ccc(C(=O)NS(=O)(=O)c4ccc(NCC5CCOCC5)c([N+](=O)[O-])c4)c(Oc4cnc5[nH]ccc5c4)c3)CC2)=C(c2ccc(Cl)cc2)C1 [Venetoclax]; conditions: max 1 µM
Method in brief: as §1

Dasatinib = compound: CC1=C(C(=CC=C1)Cl)NC(=O)C2=CN=C(S2)NC3=CC(=NC(=N3)C)N4CCN(CC4)CCO [Dasatinib]; conditions: max 2 µM
Method in brief: as §1

Crizotinib = compound: C[C@@H](Oc1cc(-c2cnn(C3CCNCC3)c2)cnc1N)c1c(Cl)ccc(F)c1Cl [Crizotinib]; conditions: max 10 µM
Method in brief: as §1

Capivasertib = compound: C1CN(CCC1(C(=O)N[C@@H](CCO)C2=CC=C(C=C2)Cl)N)C3=NC=NC4=C3C=CN4 [Capivasertib]; conditions: max 10 µM
Method in brief: as §1

AZD6738 = compound: C[C@@H]1COCCN1C2=NC(=NC(=C2)C3(CC3)[S@](=N)(=O)C)C4=C5C=CNC5=NC=C4 [AZD6738]; conditions: max 10 µM
Method in brief: as §1

Taselisib = compound: Cc1nc(-c2cn3c(n2)-c2ccc(-c4cnn(C(C)(C)C(N)=O)c4)cc2OCC3)n(C(C)C)n1 [Taselisib]; conditions: max 10 µM
Method in brief: as §1

AZD4320 = compound: CN(CC[C@H](CSC1=CC=CC=C1)NC2=C(C=C(C=C2)S(=O)(=O)NC(=O)C3=CC=C(C=C3)N4CCC(CC4)[C@H](C5=CC=CC=C5C6=CC=C(C=C6)Cl)O)S(=O)(=O)C(F)(F)F)CCO [AZD4320]; conditions: max 1 µM
Method in brief: as §1

AZD0156 = compound: CN(C)CCCOc1ccc(-c2ccc3ncc4c(c3c2)n(C2CCOCC2)c(=O)n4C)cn1 [AZD0156]; conditions: max 3 µM
Method in brief: as §1

Savolitinib = compound: C[C@@H](c1ccc2nccn2c1)n1nnc2ncc(-c3cnn(C)c3)nc21 [Savolitinib]; conditions: max 1 µM
Method in brief: as §1

Selumetinib = compound: Cn1cnc2c(F)c(Nc3ccc(Br)cc3Cl)c(C(=O)NOCCO)cc21 [Selumetinib]; conditions: max 10 µM
Method in brief: as §1

Alisertib = compound: COc1cc(Nc2ncc3c(n2)-c2ccc(Cl)cc2C(c2c(F)cccc2OC)=NC3)ccc1C(=O)O [Alisertib]; conditions: max 10 µM
Method in brief: as §1

SG3199 = compound: CC1=CN2[C@@H](C1)C=NC3=CC(=C(C=C3C2=O)OC)OCCCCCOC4=C(C=C5C(=C4)N=C[C@@H]6CC(=CN6C5=O)C)OC [SG3199]; conditions: max 0.001 µM
Method in brief: as §1

AZD1390 = compound: CC(C)n1c(=O)n(C)c2cnc3cc(F)c(-c4ccc(OCCCN5CCCCC5)nc4)cc3c21 [AZD1390]; conditions: max 0.3 µM
Method in brief: as §1

Trametinib = compound: CC(=O)Nc1cccc(-n2c(=O)n(C3CC3)c(=O)c3c(Nc4ccc(I)cc4F)n(C)c(=O)c(C)c32)c1 [Trametinib]; conditions: max 1 µM
Method in brief: as §1

Palbociclib = compound: CC(=O)c1c(C)c2cnc(Nc3ccc(N4CCNCC4)cn3)nc2n(C2CCCC2)c1=O [Palbociclib]; conditions: max 10 µM
Method in brief: as §1

AZD8186 = compound: C[C@@H](Nc1cc(F)cc(F)c1)c1cc(C(=O)N(C)C)cc2c(=O)cc(N3CCOCC3)oc12 [AZD8186]; conditions: max 3 µM
Method in brief: as §1

AZD1775 = compound: C=CCn1c(=O)c2cnc(Nc3ccc(N4CCN(C)CC4)cc3)nc2n1-c1cccc(C(C)(C)O)n1 [AZD1775]; conditions: max 3 µM
Method in brief: as §1

Olaparib = compound: O=C(c1cc(Cc2n[nH]c(=O)c3ccccc23)ccc1F)N1CCN(C(=O)C2CC2)CC1 [Olaparib]; conditions: max 10 µM
Method in brief: as §1

With NCI-H1573 (Lung Adenocarcinoma) the “IC50, cell viability 72 h” value (MK-2206) was > 10 µM, the “IC50, cell viability 72 h” value (AZD2811) was > 1000 nM and the “IC50, cell viability 72 h” value (AZD5991) was > 1000 nM. The “IC50, cell viability 72 h” value (Gefitinib) was > 10 µM, the “IC50, cell viability 72 h” value (AZD5153) was > 1000 nM and the “IC50, cell viability 72 h” value (SN-38) was > 300 nM. The “IC50, cell viability 72 h” value (Lapatinib) was > 10 µM, the “IC50, cell viability 72 h” value (Prexasertib) was 296 nM and the “IC50, cell viability 72 h” value (Doxorubicin) was > 1000 nM. For the same cell line, the “IC50, cell viability 72 h” value (AZD7648) was > 10 µM, the “IC50, cell viability 72 h” value (Venetoclax) was > 1000 nM and the “IC50, cell viability 72 h” value (Dasatinib) was > 2000 nM. The “IC50, cell viability 72 h” value (Crizotinib) was > 10 µM, the “IC50, cell viability 72 h” value (Capivasertib) was > 10 µM and the “IC50, cell viability 72 h” value (AZD6738) was > 10 µM. For the same cell line, the “IC50, cell viability 72 h” value (Taselisib) was > 10 µM, the “IC50, cell viability 72 h” value (AZD4320) was > 1000 nM and the “IC50, cell viability 72 h” value (AZD0156) was > 3000 nM. For the same cell line, the “IC50, cell viability 72 h” value (Savolitinib) was > 1000 nM, the “IC50, cell viability 72 h” value (Selumetinib) was > 10 µM and the “IC50, cell viability 72 h” value (Alisertib) was > 10 µM. For the same cell line, the “IC50, cell viability 72 h” value (SG3199) was > 1 nM, the “IC50, cell viability 72 h” value (AZD1390) was > 300 nM and the “IC50, cell viability 72 h” value (Trametinib) was 429 nM. For the same cell line, the “IC50, cell viability 72 h” value (Palbociclib) was > 10 µM, the “IC50, cell viability 72 h” value (AZD8186) was > 3000 nM and the “IC50, cell viability 72 h” value (AZD1775) was > 3000 nM. The “IC50, cell viability 72 h” value (Olaparib) was > 10 µM.
